Data as given in publication PMC8249445, “Complex effects of macrolide venturicidins on bacterial F-ATPases likely contribute to their action as antibiotic adjuvants” (Scientific Reports, 2021).
Read-outs that look alike come from different tables or passages of the source.

Legend:
[1] = target: T1, FOF1-ATPase of WT E. coli membranes (Escherichia coli, UniProt P68699); assay: biochemical; assay type: biochemical; details: for ATPase rate, Early / ATPase rate, Late / Late/early ratio: 10 µM ventA final; for Ki: VentA at half-max. inhibition (Ki), early inhibition
T1 construct: To express haploid levels of EcFOF1 containing WT-ε or ε88-stop; expressed in transfected cells; host or cells: E. coli strain XH1 (chromosomal atpC deletion) carrying pMBε1; inverted membrane vesicles
Procedure: ATP hydrolysis is enzyme-coupled to conversion of NADH to NAD^+, which results in decreased light absorbance; thus, a larger rate of ATP hydrolysis is indicated by a steeper downward slope. The system also rapidly regenerates ATP, minimizing the concentration of product ADP during the assay. Unless noted, assays were preincubated to establish a steady state hydrolysis rate (see “Methods”) before the ‘zero’ point of measurements.
(§1) Plasmid pXH302S, which encodes the WT atpC gene and expresses near haploid levels of the ε subunit, was subjected to fusion PCR mutagenesis to construct plasmid pMBε1, with an N-terminal affinity tag ([…]) added prior to the initial Met residue. To express the ε88-stop subunit, an AfeI-ScaI restriction fragment of WT pMBε1 was replaced by the analogous fragment from pH6ε88-stop[46]. To express haploid levels of EcFOF1 containing WT-ε or ε88-stop, the appropriate version of pMBε1 was transformed into E. coli strain XH1, which has a chromosomal deletion of the atpC gene for ε[54]. For these transformed strains, cultures were grown and inverted membrane vesicles (IMV) were prepared according to [55]. WT ε, with the same N-terminal His6-tag, was over-expressed from pH6ε and purified as described.
ATP hydrolysis by membrane vesicles was assayed spectrophotometrically[57] at 30 °C using an open-chamber, diode array spectrophotometer (Hewlett Packard 8453 UV–Vis) as described in[29]. The assay medium (1 ml per assay) contained 20 mM Mops/Tris, pH 8.0, 0.2 mM EDTA, 10 mM CH3COOK, 1 mM ATP, 3.2 mM Mg(CH3COO)2, 1 mM phosphoenolpyruvate, at least 0.3 mM NADH, 0.1 mg/ml pyruvate kinase, 0.1 mg/ml lactate dehydrogenase, 5 mM KCN, and 5 μM carbonyl cyanide 4-(trifluoromethoxy)-phenylhydrazone. […] To avoid interference of this increase with the changes of ATPase activity induced by venturicidins, unless indicated otherwise, measurement of ATPase activities were started 60 min after addition of membranes to the complete assay medium. […] To keep absorbance between 1.5 and 2 units after the 60-min preincubation, up to 0.2 mM additional NADH was added to the assay medium. In figures displaying activity traces, some traces are shifted vertically for visual clarity.

[2] = test system: S. aureus (MRSA) strains; details: cited from earlier work
[3] = target: T2, E. coli membranes with FOF1 lacking the ε subunit's CTD (ε88-stop) (Escherichia coli, UniProt P68699); assay: ATP hydrolysis by ε88-stop E. coli membranes, enzyme-coupled spectrophotometric assay; assay type: biochemical; details: for Ki: VentA at half-max. inhibition (Ki), early inhibition; for ATPase at saturating ventA (y0) / VentA-sensitive ATPase (y1): best fit of early rates
T2 construct: To express haploid levels of EcFOF1 containing WT-ε or ε88-stop; expressed in transfected cells; host or cells: E. coli strain XH1 (chromosomal atpC deletion) carrying the ε88-stop version of pMBε1; inverted membrane vesicles
Text: We next investigated whether the ε-inhibited state of EcFOF1 also impacts interactions of ventA with the enzyme. The N-terminal domain (NTD) of ε is required for FOF1 assembly and functional coupling of F1 to FO in eukaryotic and bacterial species; the C-terminal domain (CTD) of ε can auto-inhibit FOF1 and isolated F1 from some bacteria and from chloroplasts, but the mitochondrial homolog (δ) is not inhibitory[39],[40]. Thus we measured the effects of ventA on ATPase activity of E. coli membranes expressing ε88-stop, which lacks the autoinhibitory εCTD (Fig. 3). From Table 1 (100% ATPase values), it is clear that selenite activates membrane ATPase more (fourfold) for ε88-stop than for WT (2.8-fold). This is because, without the inhibitory εCTD, more enzyme complexes shift to the MgADP-inhibited state, which can be activated by selenite. […] In contrast, early inhibition of ATPase by ventA has similar Ki values for WT and ε88-stop membranes in the absence (0.7 vs 0.5 μM) or in the presence of selenite (0.23 vs 0.09 μM).
as §1
ATP hydrolysis by membrane vesicles was assayed spectrophotometrically[57] at 30 °C using an open-chamber, diode array spectrophotometer (Hewlett Packard 8453 UV–Vis) as described in[29]. The assay medium (1 ml per assay) contained 20 mM Mops/Tris, pH 8.0, 0.2 mM EDTA, 10 mM CH3COOK, 1 mM ATP, 3.2 mM Mg(CH3COO)2, 1 mM phosphoenolpyruvate, at least 0.3 mM NADH, 0.1 mg/ml pyruvate kinase, 0.1 mg/ml lactate dehydrogenase, 5 mM KCN, and 5 μM carbonyl cyanide 4-(trifluoromethoxy)-phenylhydrazone. As noted before, the rate of ATP hydrolysis by membranes increases to a small degree during assays. This is due, at least in part, to dissociation of a small fraction of EcF1 and/or ε from the membranes, since the increase is inhibited by added ε (e.g., Fig. 5). To avoid interference of this increase with the changes of ATPase activity induced by venturicidins, unless indicated otherwise, measurement of ATPase activities were started 60 min after addition of membranes to the complete assay medium. This minimizes further increases in ATPase rate during control assays to < 15%. To keep absorbance between 1.5 and 2 units after the 60-min preincubation, up to 0.2 mM additional NADH was added to the assay medium. In figures displaying activity traces, some traces are shifted vertically for visual clarity.

[4] = preincubation +MgATP, no ventA, selenite
[5] = preincubation No MgATP, +ventA (trace 2), 40 mM selenite
[6] = WT + 6 μM azide (Fig. 2C), best fit of early rates
[7] = WT + 38.5 mM selenite (Fig. 2B), best fit of early rates
[8] = ε88stop + 38.5 mM selenite (Fig. 3B)

CCC(=O)C(C)C(O)C(C)CC(C)C1OC(=O)CC2(O)CC=C(C)C(O2)C(C)=CCCCC(OC2CC(OC(N)=O)C(O)C(C)O2)C=CC(C)CC1C (stereo not shown) [ventA, venturicidin A]
Late rate (last 3 min of assay) ([1]; 9.5 μM ventA, 38.5 mM selenite (Fig. 5A #3)): 2.7 U/mg
Rate during 100 s immediately before adding ε ([1]; 9.5 μM ventA, 38.5 mM selenite (Fig. 5A trace #4)): 2.5 U/mg
ATPase rate, Early [1, 4]: 1.27 U/mg
ATPase rate, Late [1, 4]: 2.97 U/mg
Late/early ratio [1, 4]: 2.34
ATPase rate, Early [1, 5]: 1.22 U/mg
ATPase rate, Late [1, 5]: 2.93 U/mg
Late/early ratio [1, 5]: 2.40
Decrease of initial ATPase rate ([1]; 30 min preincubation with 10 μM ventA without ATP, selenite present): about 40%
Ki ([1]; WT + 6 μM azide (Fig. 2C)): 1700 nM
Ki ([1]; WT + 38.5 mM selenite (Fig. 2B)): 230 nM
Ki ([1]; WT, alone (Fig. 2A)): 700 nM
ATPase at saturating ventA (y0) [1, 6]: 36% (± 4)
VentA-sensitive ATPase (y1) [1, 6]: 106% (± 5)
ATPase at saturating ventA (y0) [1, 7]: 53% (± 1)
VentA-sensitive ATPase (y1) [1, 7]: 46% (± 2)
Sensitivity to immediate inhibition, selenite vs azide ([1]; WT EcFOF1, MgADP-inhibited state minimized by selenite vs increased by azide): ~ sevenfold
Increase of early Ki value by azide ([1]; WT, 6 µM azide vs none): 2.4 fold
ATPase at saturating ventA (y0) ([1]; WT, alone (Fig. 2A), best fit of early rates): 47% (± 2)
VentA-sensitive ATPase (y1) ([1]; WT, alone (Fig. 2A), best fit of early rates (within 1 min after adding ventA)): 80% (± 5)
Reduction of Ki for early inhibition by selenite ([1]; WT, with vs without selenite): threefold
Immediate increase in ATPase rate, first minute post-addition ([1]; lower ventA concentration (Fig. 1, trace 2), no effector): 11%
inhibition at 10 µM ([1]; read-out: Additional time-dependent inhibition): ~25%
ATPase activity during the last 3 min of assays ([1]; ventA added after 0.1 mM DCCD (trace 3, 15 μM ventA), no selenite): 0.49 (± 0.06) U/mg
ATPase activity during the last 3 min of assays ([1]; ventA added before 0.1 mM DCCD (trace 2, 10 μM ventA), no selenite): 0.53 (± 0.05) U/mg
ATPase activity during the last 3 min of assays ([1]; ventA after 0.1 mM DCCD (trace 3, 15 μM ventA), 38.5 mM selenite): 2.84 U/mg
ATPase activity during the last 3 min of assays ([1]; ventA before 0.1 mM DCCD (trace 2, 10 μM ventA), 38.5 mM selenite): 2.93 U/mg
Reduction of cellular ATP ([2]; 16 μg ventA/ml): ~ 40%
Concentration at which maximal effect on Δψ was achieved ([2]; MRSA strain tested further): 16 μg ventA/ml
Reduction of cellular ATP ([2]; fourfold greater ventA than 16 μg/ml): ~ 90%
Ki ([3]; ε88stop (Fig. 3A)): 500 nM
Ki [3, 8]: 90 nM
Ki for early inhibition lower in presence of selenite than in its absence ([3]; ε88-stop membranes): fivefold
ATPase at saturating ventA (y0) ([3]; ε88stop (Fig. 3A)): 37% (± 3)
VentA-sensitive ATPase (y1) ([3]; ε88stop (Fig. 3A)): 67% (± 4)
ATPase at saturating ventA (y0) [3, 8]: 37% (± 2)
VentA-sensitive ATPase (y1) [3, 8]: 66% (± 4)
